Data published in US10351559B2, “Maleate salts of a B-RAF kinase inhibitor, crystalline forms, methods of preparation, and uses therefore” (BeiGene, Ltd., priority 2015, dated 2019).

Tests used:
[1] = short-term stability study (1 week, 60° C. and 40° C./75% RH); format: physicochemical
Experimental: Weighed about 2 mg (For XRPD: 10 mg) of each of the above salts in a 40 mL glass vial, separately. The free base form was used as control. The closed samples were capped and sealed with parafilm, while the opened samples were covered by aluminum foil with pinhole. All the samples were stored in stability chamber or dry oven at the corresponding conditions (60° C. and 40° C./75% RH) for 1 week.

[2] = hygroscopicity (moisture sorption) by DVS; format: physicochemical; conditions: from 0 to 80% RH
From the text: The free base of Compound 1 was obtained originally as an amorphous solid, which is slightly hygroscopic with 2.2% water gain from 0 to 80% RH. No form transformation was observed after dynamic vapor sorption (DVS).

aqueous solubility study = format: physicochemical; conditions: listed as free base of Compound 1
[3] = pharmacokinetic comparison of sesqui-maleate and free base, oral; format: in vivo, Beagle dogs; conditions: dogs, oral dose 1 mg/kg (free base); listed as Free Base (Lyophilized Amorphous Form), 1 mg/kg
From the text: Drugs and reagents: Crystalline Form A* of Compound 1 Sesqui-Maleate with particle sizes of D90=4.1 um, D10=1.5 um, D50=2.4 um after micronization. The material content (purity) was not less than 98.0%.
Experiment animals: Beagle dogs, male and female.
Pharmaceutical preparation: Weigh the appropriate amount of each substance and disperse in 0.5% sodium carboxymethyl cellulose (for the free base of Compound 1) or 0.5% methyl cellulose solution (for Compound 1 Sesqui-Maleate). Prepare a suspension at the desired concentration of Compound 1. All the doses and concentrations of Compound 1 were calculated with free base in this study.
Administration and sample collection: The dosing solutions will be freshly prepared prior to dose administration. The actual body weights and actual volume injected will be recorded accordingly. The dogs were fasted overnight and were allowed to intake food four hours after dosing. Each suspension was administrated orally to dogs at a dose ranged from 0.5 to 15 mg/kg. Blood samples (˜1.0 mL) will be collected at pre-dose and at different times up to 36 hours postdosing via cephalic vein plexus. Whole blood will be processed by centrifugation and plasma samples will be collected and kept at freezer prior to analysis. Plasma samples were processed by protein precipitation. Concentrations of Compound 1 in the plasma samples were determined using a validated liquid chromatography-tandem mass spectrometry (LC-MS/MS) method. The plasma concentration-time data were analyzed using a non-compartmental model using Pharsight WinNonlin.

CYP3A = test: CYP isoforms responsible for metabolism; format: in vitro ADME
[4] = system: BRAF V600E and KRAS cancers; test: Phase I clinical study; format: in vivo, human
tissue distribution = format: in vivo; conditions: various tissues, brain
[5] = 16 KRAS cancer patients treated

| TRS % ([1]; 0 day) | TRS % ([1]; 40° C./75% RH, 1 week) | TRS % ([1]; 60° C., 1 week) | chemical degradation ([1]; after one week at 60° C. and 40° C./75% RH) | appearance by visual observation ([1]; both conditions after 1 week) | Compound | water (weight) gain [2] | TRS % ([1]; 0 day, listed as API free base) | TRS % ([1]; 40° C./75% RH, 1 week, listed as API free base) | TRS % ([1]; 60° C., 1 week, listed as API free base) | solubility in water (aqueous solubility study) | aqueous solubility (aqueous solubility study; water, LOQ at 0.001 mg/mL) | Cmax [3] | Dose-Normalized AUC0-inf [3] | CYP isoform responsible for metabolism (CYP3A) | number of PR [4, 5] | patients survived more than 2.2 months [4, 5] | clinical response ([4]; BRAF V600E CRC patients) | clinical response ([4]; BRAF V600E PTC patients) | clinical response ([4]; BRAF V600E melanoma patients) | tissue distribution (tissue distribution) |
| --- | --- | --- | --- | --- | --- | --- | --- | --- | --- | --- | --- | --- | --- | --- | --- | --- | --- | --- | --- | --- |
| 0.08% | 0.51% | 1.16% | showed degradations | no change | 2-hydroxyethanesulfonate | around 4% | – | – | – | – | – | – | – | – | – | – | – | – | – | – |
| – | – | – | – | – | O=C1CCc2c(Oc3ccc4c(c3)[C@@H]3[C@H](O4)[C@H]3c3nc4ccc(C(F)(F)F)cc4[nH]3)ccnc2N1 [Compound 1, 5-(((1R,1aS,6bR)-1-(6-(trifluoromethyl)-1H-benzo[d]imidazol-2-yl)-1a,6b-dihydro-1H-cyclopropa[b]benzofuran-5-yl)oxy)-3,4-dihydro-1,8-naphthyridin-2(1H)-one] | 2.2% | 0.12% | 0.11% | 0.12% | substantially insoluble in water | < 1 µg/mL | 0.257 µg/mL | 1512 ng·kg·h/mL/mg | CYP3A was the major CYP isoform | 3 PR | at least 12 patients | some anti-tumor activities | partial responses | partial responses | widely distributed to various tissues, but was low in brain tissue |
